Reference: patent publication US20160002204A1 (Board of Regents, The University of Texas System, priority 2014, published 2016)

Assays:
[1] = biological target: T1, GLS1 (purified recombinant human GAC) (Homo sapiens, UniProt O94925); assay: GLS1 enzymatic activity assay (dual-coupled, Amplex UltraRed/resorufin); assay type: biochemical
T1 sequence (O94925 55-598 isoform O94925-3 limits assumed): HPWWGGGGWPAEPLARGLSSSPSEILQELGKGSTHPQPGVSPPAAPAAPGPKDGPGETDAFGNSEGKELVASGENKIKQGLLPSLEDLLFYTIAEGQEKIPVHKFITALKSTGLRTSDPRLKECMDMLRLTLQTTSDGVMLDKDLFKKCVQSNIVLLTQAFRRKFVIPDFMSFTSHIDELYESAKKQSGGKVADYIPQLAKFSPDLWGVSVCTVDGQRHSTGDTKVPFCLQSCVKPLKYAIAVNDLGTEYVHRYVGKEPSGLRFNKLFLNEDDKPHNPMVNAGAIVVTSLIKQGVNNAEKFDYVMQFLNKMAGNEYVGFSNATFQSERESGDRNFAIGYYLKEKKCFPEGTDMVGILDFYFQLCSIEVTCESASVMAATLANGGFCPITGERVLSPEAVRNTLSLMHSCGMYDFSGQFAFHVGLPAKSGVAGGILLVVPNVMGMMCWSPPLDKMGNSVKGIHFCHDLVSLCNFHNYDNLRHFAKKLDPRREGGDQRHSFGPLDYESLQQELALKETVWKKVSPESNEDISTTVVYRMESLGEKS
Summary of the method: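 In this coupled fluorometric format, phosphate-activated GAC (2 nM, 50 mM phosphate) is pre-exposed to compound for 10 min before 1 mM glutamine addition. Product is tracked as resorufin (530/590 nm) over time or at 20 min, and potency is derived by logistic fitting.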

A549 cells = assay: A549 proliferation (viability) assay, Cell Titer Fluor, 72 hours; assay type: cell-based; conditions: Homo sapiens
Summary of the method: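 Compound exposure lasted 72 h (final DMSO 0.5% v/v) on A549 cells plated at 1000 cells/well one day earlier. Cell Titer Fluor added, 30 min at 37 °C, fluorescence read; EC50 derived by four-parameter logistic curve fitting.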

IC50 [1] [nM]	EC50 (A549 cells) [nM]	SMILES
< 100	< 100	Cc1ccc(CNC(=O)c2nnc(CCCCn3ccc(NC(=O)CC4CCC4)c(F)c3=O)s2)cn1 [Example 464, 5-(4-(4-(2-cyclobutylacetamido)-3-fluoro-2-oxopyridin-1(2H)-yl)butyl)-N-((6-methylpyridin-3-yl)methyl)-1,3,4-thiadiazole-2-carboxamide]
< 100	< 100	O=C(CC1CCC1)Nc1ccn(CCCCc2nnc(C(=O)NCc3cc(C(F)(F)F)ccn3)s2)c(=O)c1F [Example 465, 5-{4-[4-(2-cyclobutylacetamido)-3-fluoro-2-oxo-1,2-dihydropyridin-1-yl]butyl}-N-{[4-(trifluoromethyl)pyridin-2-yl]methyl}-1,3,4-thiadiazole-2-carboxamide]
< 100	100 to 500	O=C(Nc1ccn(CCCCc2nnc(C(=O)NCc3cc(C(F)(F)F)ccn3)s2)c(=O)c1F)C(=O)N1CCCCC1 [Example 466, 5-(4-{3-fluoro-2-oxo-4-[2-oxo-2-(piperidin-1-yl)acetamido]-1,2-dihydropyridin-1-yl)butyl)-N-{[4-(trifluoromethyl)pyridin-2-yl]methyl}-1,3,4-thiadiazole-2-carboxamide]
< 100	100 to 500	O=C(CN1CCCCC1)Nc1ccn(CCCCc2nnc(C(=O)NCc3cc(C(F)(F)F)ccn3)s2)c(=O)c1F [Example 467, 5-(4-{3-fluoro-2-oxo-4-[2-(piperidin-1-yl)acetamido]-1,2-dihydropyridin-1-yl}butyl)-N-{[4-(trifluoromethyl)pyridin-2-yl]methyl}-1,3,4-thiadiazole-2-carboxamide]
< 100	100 to 500	O=C(Nc1ccn(CCCCc2nnc(C(=O)NCc3cc(C(F)(F)F)ccn3)s2)c(=O)c1F)OC1CCC1 [Example 469, cyclobutyl N-(3-fluoro-2-oxo-1-{4-[5-({[4-(trifluoromethyl)pyridin-2-yl]methyl}carbamoyl)-1,3,4-thiadiazol-2-yl]butyl}-1,2-dihydropyridin-4-yl)carbamate]
< 100	< 100	O=C(Nc1ccn(CCC(F)Cn2cc(C(=O)NCc3cccc(OC(F)(F)F)c3)nn2)c(=O)n1)OCc1ccccc1 (stereo not drawn) [Example 470, benzyl N-(1-{3-fluoro-4-[4-({[3-(trifluoromethoxy)phenyl]methyl}carbamoyl)-1H-1,2,3-triazol-1-yl]butyl}-2-oxo-1,2-dihydropyrimidin-4-yl)carbamate]
< 100	< 100	CC(C)COC(=O)Nc1ccn(CCC(F)Cn2cc(C(=O)NCc3cccc(OC(F)(F)F)c3)nn2)c(=O)n1 (stereo not drawn) [Example 471, 2-methylpropyl N-(1-{3-fluoro-4-[4-({[3-(trifluoro-methoxy)phenyl]methyl}carbamoyl)-1H-1,2,3-triazol-1-yl]butyl}-2-oxo-1,2-dihydropyrimidin-4-yl)carbamate]
< 100	100 to 500	O=C(NCc1cccc(OC(F)(F)F)c1)c1cn(CC(F)CCn2ccc(COc3cccc(F)c3)cc2=O)nn1 (stereo not drawn) [Example 472, 1-{2-fluoro-4-[4-(3-fluorophenoxymethyl)-2-oxo-1,2-dihydropyridin-1-yl]butyl}-N-{[3-(trifluoromethoxy)phenyl]methyl}-1H-1,2,3-triazole-4-carboxamide]
< 100	100 to 500	O=C(NCc1cccc(OC(F)(F)F)c1)c1cn(CC(F)CCn2ccc(COc3ccccc3F)cc2=O)nn1 (stereo not drawn) [Example 473, 1-{2-fluoro-4-[4-(2-fluorophenoxymethyl)-2-oxo-1,2-dihydropyridin-1-yl]butyl}-N-{[3-(trifluoromethoxy)phenyl]methyl}-1H-1,2,3-triazole-4-carboxamide]
< 100	100 to 500	O=C(NCc1cccc(OC(F)(F)F)c1)c1cn(CC(F)CCn2ccc(COc3c(F)cccc3F)cc2=O)nn1 (stereo not drawn) [Example 474, 1-{4-[4-(2,6-difluorophenoxymethyl)-2-oxo-1,2-dihydropyridin-1-yl]-2-fluorobutyl}-N-{[3-(trifluoromethoxy)phenyl]methyl}-1H-1,2,3-triazole-4-carboxamide]
< 100	500 to 5000	O=C(NCc1cccc(OC(F)(F)F)c1)c1cn(CC(F)CCn2ccc(COc3cccc(Cl)c3)cc2=O)nn1 (stereo not drawn) [Example 475, 1-{4-[4-(3-chlorophenoxymethyl)-2-oxo-1,2-dihydropyridin-1-yl]-2-fluorobutyl}-N-{[3-(trifluoromethoxy)phenyl]methyl}-1H-1,2,3-triazole-4-carboxamide]
< 100	500 to 5000	O=C(NCc1cccc(OC(F)(F)F)c1)c1cn(CC(F)CCn2ccc(COc3cccc(OC(F)(F)F)c3)cc2=O)nn1 (stereo not drawn) [Example 476, 1-(2-fluoro-4-{2-oxo-4-[3-(trifluoromethoxy)phenoxymethyl]-1,2-dihydropyridin-1-yl}butyl)-N-{[3-(trifluoromethoxy)phenyl]methyl}-1H-1,2,3-triazole-4-carboxamide]
< 100	100 to 500	O=C(NCc1cccc(OC(F)(F)F)c1)c1cn(CC(F)CCn2ccc(COc3ccc(Cl)cc3)cc2=O)nn1 (stereo not drawn) [Example 477, 1-{4-[4-(4-chlorophenoxymethyl)-2-oxo-1,2-dihydropyridin-1-yl]-2-fluorobutyl}-N-{[3-(trifluoromethoxy)phenyl]methyl}-1H-1,2,3-triazole-4-carboxamide]
< 100	100 to 500	O=C(NCc1cccc(OC(F)(F)F)c1)c1cn(CC(F)CCn2ccc(COc3ccc(F)cc3F)cc2=O)nn1 (stereo not drawn) [Example 478, 1-{4-[4-(2,4-difluorophenoxymethyl)-2-oxo-1,2-dihydropyridin-1-yl]-2-fluorobutyl}-N-{[3-(trifluoromethoxy)phenyl]methyl}-1H-1,2,3-triazole-4-carboxamide]
500 to 5000	500 to 5000	O=C(NCc1cccc(OC(F)(F)F)c1)c1cn(CC(F)CCn2ccc(Cn3ccccc3=O)cc2=O)nn1 (stereo not drawn) [Example 479, 1-(2-fluoro-4-{2-oxo-4-[(2-oxo-1,2-dihydropyridin-1-yl)methyl]-1,2-dihydropyridin-1-yl}butyl)-N-{[3-(trifluoromethoxy)phenyl]methyl}-1H-1,2,3-triazole-4-carboxamide]
100 to 500	500 to 5000	O=C(NCc1cccc(OC(F)(F)F)c1)c1cn(CC(F)CCn2ccc(COc3ccccn3)cc2=O)nn1 (stereo not drawn) [Example 480, 1-(2-fluoro-4-{2-oxo-4-[(pyridin-2-yloxy)methyl]-1,2-dihydropyridin-1-yl}butyl)-N-{[3-(trifluoromethoxy)phenyl]methyl}-1H-1,2,3-triazole-4-carboxamide]
< 100	100 to 500	O=C(NCc1cc(C(F)(F)F)ccn1)c1cn(CC(F)CCn2ccc(COc3cccc(Cl)c3)cc2=O)nn1 (stereo not drawn) [Example 481, 1-{4-[4-(3-chlorophenoxymethyl)-2-oxo-1,2-dihydropyridin-1-yl]-2-fluorobutyl}-N-{[4-(trifluoromethyl)pyridin-2-yl]methyl}-1H-1,2,3-triazole-4-carboxamide]

SMILES	IC50 [1] [nM]	EC50 (A549 cells) [nM]
Cc1ccc(CNC(=O)c2nnc(CCCCn3ccc(NC(=O)OC4CCC4)c(F)c3=O)s2)cn1 [Example 468, Cyclobutyl(3-fluoro-1-(4-(5-(((6-methylpyridin-3-yl)methyl)carbamoyl)-1,3,4-thiadiazol-2-yl)butyl)-2-oxo-1,2-dihydropyridin-4-yl)carbamate]	100 to 500	100 to 500
